# Reference: patent US5981494A, “Use of glycosidase inhibitors” (University College London, priority 1997, dated 1999)
# Assays:
# [1] = test system: thioglycollate-induced peritoneal macrophages; assay: TNF induction from thioglycollate-induced peritoneal macrophages (ELISA and L929 cytotoxicity bioassay); assay type: cell-based, murine
# Description: Serial dilutions of an extract of parasitized RBC which (undiluted) induced 435 ng/ml of TNF as determined by ELISA and 30,400 U/ml in the bioassay were incubated at pH 8.0 at 37° C. overnight with a series of concentrations of α-galactosidase from Sigma or from Oxford Glycosystems, boiled, neutralised and then tested on macrophages for TNF induction by bioassay and ELISA (means of duplicates). The amount of TNF that would have been induced by the original undiluted extract was then calculated.
# (§1) (One of 2 experiments) (A) Rate of reaction of 0.04 U/ml of α-galactosidase at 37° C. with p-nitrophenyl-α-D-galactopyranoside as substrate as determined over the first 3 mins. (B) Malaria toxin from P. yoelii diluted 1/10 and (C) 50 ng/ml of LPS were incubated overnight at 37° C. with 2 U/ml of α-galactosidase,then boiled and tested on macrophages for TNF induction, assayed by ELISA. (Means of duplicates).
# Mice bred at University College London ((CBA×Balb/c)F1 or CBA×C57B1) F1) were infected with P. yoelii YM or P. berghei ANKA. Parasitized RBC (1×10^8/ml)in Earle's Balanced Salt Solution (BSS; Life Technologies Ltd, Paisley, U.K.) were incubated at 37° C. overnight, then disrupted by freezing and thawing, digested overnight with 250 μg pronase E (Sigma) per mg of protein (determined by BioRad assay), boiled, treated with 25 μg/ml polymyxin B agarose (Sigma) to eliminate endotoxin, filtered through a 0.2-μm filter (Sartorius AG, Gottingen, Germany) and stored at 4° C. (24). TNF induction from thioglycollate-induced peritoneal macrophages and ELISA assays for murine TNF were described previously (24). Polymyxin B (5 μg/ml) was included in all experiments with malaria toxin to exclude effects from contaminating LPS. A more sensitive one-plate procedure for TNF production and assay was also used (5). Cytotoxicity assays for TNF were done using L929 cells (23). Green coffee bean α-D-galactosidase was obtained from 2 sources (Sigma, Poole, Dorset, UK and Oxford GlycoSystems Ltd, Abingdon, Oxford UK).
# [2] = α-galactosidase hydrolysis of p-nitrophenyl-α-D-galactopyranoside (αPNP-Gal); assay type: biochemical
# Description: as §1
# The α-galactosidase hydrolysis of p-nitrophenyl-α-D-galactopyranoside (αPNP-Gal) is optimal at pH 6.0 (4, 9) and undetectable at pH 8.0 (9), as we confirmed, but enhancement of TNF-induction by malaria toxin was greatest at pH 8.0 (FIG. 2.). […] The degree of enhancement also varied with the concentration of LPS, and at higher concentrations enhancement was also detectable at pH 6.0.
# [3] = β-galactosidase activity against βPNP-Gal; assay type: biochemical; conditions: pH 6.0; α-galactosidase preparations
# From the text: This was supported by the observation of batch to batch variability and the fact that the stability of the TNF-enhancing activity differed from the αPNP-Gal activity. Although all enzyme preparations were first dialysed and adjusted to the same activity against αPNP-Gal, batches from different sources enhanced to different degrees (as illustrated in FIG. 1). […] Apart from BSA, all preparations contained 3 bands of 33 kD, 29 kD and 27 kD; 28 kD and 36.5 kD isoforms were previously described (4).
substance,measurement,setting,value
α-galactosidase: Green coffee bean α-D-galactosidase obtained from Sigma and Oxford GlycoSystems,"TNF secretion of macrophages pre-treated with enzyme, then stimulated with toxin or LPS","[1]; 2 U/ml enzyme for 1 hr at 37° C., then toxin or 2 or 10 ng/ml LPS",did not secrete more TNF than untreated cells
same,TNF induction from macrophages incubated with enzyme only,[1]; 2 U/ml enzyme only,No TNF was induced
same,increase in potency of LPS in stimulating the release of TNFα from macrophages,[1]; bacterial derived LPS treated with the enzyme,10-100 fold
same,enhancement of TNF induction with boiled enzyme,[1]; boiled enzyme,no enhancement occurred
same,enhancement of TNF induction by malaria toxin (extracts of infected RBC) pre-treated with enzyme,[1]; extracts of RBC infected with P. yoelii or P. berghei,Significant increase in TNF-induction
same,pH of greatest enhancement of TNF-induction by malaria toxin,[1]; overnight at 37° C. with 2 U/ml enzyme,8.0 pH
same,enhancement of TNF-inducing activity of LPS,[1]; similar pH profile to the toxin,also enhanced
same,stability of TNF-enhancing capacity on storage,[1]; storage at 4° C.,deteriorated
same,pH optimum of hydrolysis of αPNP-Gal,[2],6.0 pH
same,hydrolysis of αPNP-Gal at pH 8.0,[2]; pH 8.0,undetectable
same,β-galactosidase activity against βPNP-Gal,[3],No β-galactosidase activity was detectable
